Results on 5 compounds are retold here after patent US20220220561A1, “METHODS AND CLINICAL PROTOCOLS AND KITS PERTAINING TO MAKING AND USING THERAPEUTIC COMPOSITIONS FOR CELLULAR TREATMENT” (ADVANCED REGEN MEDICAL TECHNOLOGIES, LLC, priority 2019, published 2022).

One data set concerns Aged TNCs. The experiment in a line: cell count and Trypan blue viability of aged TNCs cultured with CaMKP inhibitor. It is filed as cell-based, human. As to the method: Aged TNCs (20×10^6 cells per sample) were cultured with CaMKP inhibitor (FT-0640107 shown below) at the following concentrations 25 uM, 10 uM, 5 uM, 1 uM & 0 (vehicle). After 48 and 72 hours, cells were harvested, counted using Turk's solution and percent viability assessed using Trypan blue exclusion.
At 72 hours following treatment with the CaMPK inhibitor, FT-0640107, or vehicle, cells were harvested, counted and viability measured using Trypan blue exclusion.

For data set [1], the system named is serine-threonine protein phosphatases. Particulars: cited from earlier work.
The test system of the next data set is heterochronic cultures. Description: exosome production, total RNA and miRNA payload in heterochronic cultures. It is filed as cell-based, human.
A further data set relates to Restored cells. The experiment in a line: transwell co-culture restoration in the presence or absence of manumycin. It is filed as cell-based, human. An excerpt:
Receiver cell samples (i.e., R1, R2, and R3) were individually paired with donor cell samples (i.e., D1, D2, and D3) and the pairs co-cultured in a transwell culture cell for four weeks. The morphology of the cells was studied at 2 weeks into the co-culture and at 4 weeks of co-culture. Gene expression arrays, protein arrays, and telomere length experiments compared freshly defrosted cells from the collection tubes (referred to as the baseline donor cell sample or baseline receiver cell sample) with cells at the 4-week study endpoint (referred to as restored cell samples).
The nature of the soluble particles passing through the permeable membrane in the transwell co-culture experiments was investigated. Specifically, transwell co-culture experiments were carried out in the presence or absence of manumycin. Manumycin, N-[(1S,5S,6R)-5-hydroxy-5-[(1E,3E,5E)-7-[(2-hydroxy-5-oxo-1-cyclopenten-1-yl)amino]-7-oxo-1,3,5-heptatrien-1-yl]-2-oxo-7-oxabicyclo[4.1.0]hept-3-en-3-yl]-2E,4E,6R-trimethyl,2,4-decadienamide, is an antibiotic that acts a potent and selective farnesytransferase inhibitor. Manumycin is also known to inhibit the release of exosomes. […] Further support for the role of exosome/microvesicles in mediating the disclosed cellular restoration process is shown in FIG. 55.

Broadly, the viability is the share of living cells, or the viability signal relative to a control. Higher therefore signals better survival.

Consider `Nc1c(S(=O)(=O)O)cc(S(=O)(=O)[O-])c2cccc(O)c12.[Na+]` [FT-0640107], for which the cell number result with Aged TNCs (1 μM, 72 hours, vs vehicle control and 25 μM, donor A04) is “increase in cell number”. The viability at 1 µM in the data set with Aged TNCs (Homo sapiens, 1 μM, 72 hours, donor A04) stood at 96.3%. The viability at 25 µM with Aged TNCs (Homo sapiens, 25 μM, 72 hours, donor A04) turned out to be 93%. In addition, the “cell viability and number” value in the data set with Aged TNCs (donor A03, 48 or 72 hour) is reported as “no significant difference”.

In the case of dragmacidin D, the “inhibition of serine-threonine protein phosphatases” value in data set [1] was “potent inhibitor”.

Regarding `CC(NS(=O)(=O)c1ccc2[nH]c(=O)c(=O)[nH]c2c1)C(=O)O` (centres unmarked) [BCI-137], in the data set with heterochronic cultures, the “exosome production and total RNA content” value is “minimal effect”; the “small and miRNA payload” value is recorded as “depleted”. In addition, the “aged MPB clonogenicity” value with aged MPB (heterochronic cultures treated with inhibitor) is “significant decrease”.

As for `CCCC[C@@H](C)/C=C(C)/C=C(\C)C(=O)NC1=C[C@@](O)(/C=C/C=C/C=C/C(=O)NC2=C(O)CCC2=O)[C@@H]2O[C@@H]2C1=O` [manumycin, N-[(1S,5S,6R)-5-hydroxy-5-[(1E,3E,5E)-7-[(2-hydroxy-5-oxo-1-cyclopenten-1-yl)amino]-7-oxo-1,3,5-heptatrien-1-yl]-2-oxo-7-oxabicyclo[4.1.0]hept-3-en-3-yl]-2E,4E,6R-trimethyl,2,4-decadienamide], the “morphology of restored cells” value in the data set with Restored cells (5 μM) is given as “less robust morphology”. In the data set on Restored cells (restored cell sample), the telomere length result was “decreased”. In addition, the “protein expression of restored cell samples” value with Restored cells (vs absence of manumycin) was “elevated levels of all proteins investigated”. Besides, in the data set with Restored cells (vs changes seen in the absence of manumycin), the “gene expression of restored cell samples” value is recorded as “did not display a change in expression levels”.

On to `O=C(/C=C/c1ccc(/C=C/C(=O)Nc2ccc(C3=NCCN3)cc2)cc1)Nc1ccc(C2=NCCN2)cc1` [GW4869], for which the “toxicity to aged cultures” value in the data set on aged MPB is “extremely toxic”. The restorative phenotype entry with aged MPB (blocking global exosome production, data not shown) was “abrogated the restorative phenotype”.
